{"source": "ChEMBL document CHEMBL1142902", "about": "“Inhibition of FLT3 and PDGFR tyrosine kinase activity by bis(benzo[b]furan-2-yl)methanones” (Bioorg Med Chem, 2007)", "key": {"[1]": {"biological_target": "T1, Receptor-type tyrosine-protein kinase FLT3 (Homo sapiens, UniProt P36888)", "T1 sequence (P36888 whole entry)": "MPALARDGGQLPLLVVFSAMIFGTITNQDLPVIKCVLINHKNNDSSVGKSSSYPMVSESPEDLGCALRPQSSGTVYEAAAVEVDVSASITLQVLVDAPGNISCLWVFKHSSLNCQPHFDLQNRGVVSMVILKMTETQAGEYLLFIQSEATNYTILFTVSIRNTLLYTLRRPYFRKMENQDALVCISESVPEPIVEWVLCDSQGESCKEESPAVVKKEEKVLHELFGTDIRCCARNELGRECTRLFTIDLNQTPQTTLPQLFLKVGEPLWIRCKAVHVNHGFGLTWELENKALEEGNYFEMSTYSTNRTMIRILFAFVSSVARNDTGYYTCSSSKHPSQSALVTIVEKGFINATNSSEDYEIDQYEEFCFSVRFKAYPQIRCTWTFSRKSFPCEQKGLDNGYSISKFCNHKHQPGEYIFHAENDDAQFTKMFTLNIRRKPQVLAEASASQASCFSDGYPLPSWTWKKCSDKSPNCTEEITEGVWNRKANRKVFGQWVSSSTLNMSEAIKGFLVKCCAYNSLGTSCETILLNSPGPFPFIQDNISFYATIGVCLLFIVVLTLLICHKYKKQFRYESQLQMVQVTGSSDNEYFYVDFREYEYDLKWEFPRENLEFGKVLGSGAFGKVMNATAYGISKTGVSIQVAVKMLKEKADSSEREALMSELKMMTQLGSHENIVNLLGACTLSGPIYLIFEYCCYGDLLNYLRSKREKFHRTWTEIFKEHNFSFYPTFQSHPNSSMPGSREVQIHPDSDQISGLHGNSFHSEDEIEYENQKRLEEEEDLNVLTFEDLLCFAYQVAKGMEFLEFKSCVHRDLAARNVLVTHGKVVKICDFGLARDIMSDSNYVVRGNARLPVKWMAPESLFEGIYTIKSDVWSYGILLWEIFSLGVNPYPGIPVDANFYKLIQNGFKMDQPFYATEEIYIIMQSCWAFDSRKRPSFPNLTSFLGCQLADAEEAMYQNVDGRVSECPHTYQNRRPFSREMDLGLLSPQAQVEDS", "assay": "Inhibition of endogenous FLT3 autophosphorylation in EOL1 cells", "format": "cell-based"}, "[2]": {"biological_target": "Platelet-derived growth factor receptor beta (Mus musculus, UniProt P05622)", "sequence (P05622 whole entry)": "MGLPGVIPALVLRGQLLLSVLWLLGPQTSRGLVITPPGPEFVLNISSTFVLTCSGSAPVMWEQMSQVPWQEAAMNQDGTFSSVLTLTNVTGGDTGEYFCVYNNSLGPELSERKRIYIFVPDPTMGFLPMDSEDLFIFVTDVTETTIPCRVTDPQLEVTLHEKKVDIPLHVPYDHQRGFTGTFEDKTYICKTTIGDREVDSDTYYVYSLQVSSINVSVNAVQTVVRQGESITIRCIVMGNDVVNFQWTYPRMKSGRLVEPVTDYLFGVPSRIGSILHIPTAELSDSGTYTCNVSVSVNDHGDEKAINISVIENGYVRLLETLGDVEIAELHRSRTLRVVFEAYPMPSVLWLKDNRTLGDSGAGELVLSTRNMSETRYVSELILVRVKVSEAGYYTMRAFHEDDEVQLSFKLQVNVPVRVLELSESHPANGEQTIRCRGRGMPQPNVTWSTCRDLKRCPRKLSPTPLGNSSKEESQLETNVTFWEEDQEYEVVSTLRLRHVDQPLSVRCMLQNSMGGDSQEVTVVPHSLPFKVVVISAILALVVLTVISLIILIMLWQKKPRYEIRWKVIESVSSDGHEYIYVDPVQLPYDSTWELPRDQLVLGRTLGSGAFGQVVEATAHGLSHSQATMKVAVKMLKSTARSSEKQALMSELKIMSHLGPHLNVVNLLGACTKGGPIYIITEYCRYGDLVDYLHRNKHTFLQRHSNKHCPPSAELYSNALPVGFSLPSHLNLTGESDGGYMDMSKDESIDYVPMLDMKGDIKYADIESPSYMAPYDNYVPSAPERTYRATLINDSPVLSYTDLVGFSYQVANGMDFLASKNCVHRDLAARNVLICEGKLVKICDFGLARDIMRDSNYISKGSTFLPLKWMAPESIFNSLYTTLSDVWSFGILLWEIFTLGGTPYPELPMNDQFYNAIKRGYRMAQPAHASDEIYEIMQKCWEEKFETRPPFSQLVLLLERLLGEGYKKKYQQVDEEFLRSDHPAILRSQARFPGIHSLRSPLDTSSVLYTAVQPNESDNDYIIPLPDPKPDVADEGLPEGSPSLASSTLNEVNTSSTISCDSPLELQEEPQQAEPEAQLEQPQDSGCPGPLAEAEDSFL", "assay": "Inhibition of endogenous PDGFRbeta autophosphorylation in Swiss 3T3 fibroblasts"}}}
{"smiles": "COc1ccc2oc(C(=O)c3cc4cc(OC)ccc4o3)cc2c1", "values": [{"measurement": "IC50", "setting": "[1]", "value": "> 30", "unit": "µM"}, {"measurement": "IC50", "setting": "[2]", "value": 1, "unit": "µM"}]}
{"smiles": "COc1ccc2cc(C(=O)c3cc4ccc(OC)cc4o3)oc2c1", "values": [{"measurement": "IC50", "setting": "[1]", "value": "> 30", "unit": "µM"}, {"measurement": "IC50", "setting": "[2]", "value": "> 30", "unit": "µM"}]}
{"smiles": "O=C(c1cc2cc(O)ccc2o1)c1cc2cc(O)ccc2o1", "values": [{"measurement": "IC50", "setting": "[2]", "value": 0.6, "unit": "µM"}]}
{"smiles": "O=C(c1cc2ccc(O)cc2o1)c1cc2ccc(O)cc2o1", "values": [{"measurement": "IC50", "setting": "[2]", "value": 9.7, "unit": "µM"}]}
{"smiles": "O=C(c1cc2cccc(O)c2o1)c1cc2cccc(O)c2o1", "values": [{"measurement": "IC50", "setting": "[1]", "value": "> 30", "unit": "µM"}, {"measurement": "IC50", "setting": "[2]", "value": 20, "unit": "µM"}]}
{"smiles": "CC(=O)Oc1ccc2oc(C(=O)c3cc4cc(OC(C)=O)ccc4o3)cc2c1", "values": [{"measurement": "IC50", "setting": "[2]", "value": 0.7, "unit": "µM"}]}
{"smiles": "O=C(c1cc2ccccc2[nH]1)c1cc2ccccc2o1", "values": [{"measurement": "IC50", "setting": "[2]", "value": 1.07, "unit": "µM"}]}
{"smiles": "O=C(c1cc2cc(O)ccc2[nH]1)c1cc2cc(O)ccc2o1", "values": [{"measurement": "IC50", "setting": "[2]", "value": 0.2, "unit": "µM"}]}
{"smiles": "O=C(c1cc2ccccc2o1)c1cc2ccccc2o1", "values": [{"measurement": "IC50", "setting": "[2]", "value": 1.2, "unit": "µM"}]}
{"smiles": "Nc1ccc2oc(C(=O)c3cc4cc(N)ccc4o3)cc2c1", "values": [{"measurement": "IC50", "setting": "[2]", "value": 1.2, "unit": "µM"}]}
{"smiles": "COc1cccc2oc(C(=O)c3cc4c(OC)cccc4o3)cc12", "values": [{"measurement": "IC50", "setting": "[1]", "value": "> 30", "unit": "µM"}, {"measurement": "IC50", "setting": "[2]", "value": "> 30", "unit": "µM"}]}
{"smiles": "COc1cccc2cc(C(=O)c3cc4cccc(OC)c4o3)oc12", "values": [{"measurement": "IC50", "setting": "[1]", "value": "> 30", "unit": "µM"}, {"measurement": "IC50", "setting": "[2]", "value": "> 30", "unit": "µM"}]}
{"smiles": "Cc1cc2ncc(-c3ccccc3)nc2cc1C", "note": "[AG1295]", "values": [{"measurement": "IC50", "setting": "[2]", "value": 5.4, "unit": "µM"}]}
